What is called solubility is the concentration that dissolves in the medium under given conditions.

Our source for the solubility values is US20240058422A1, “GLUCAGON-LIKE PEPTIDE-1 RECEPTOR ANTAGONISTS” (INDIANA UNIVERSITY RESEARCH AND TECHNOLOGY CORPORATION, priority 2022, published 2024).

Structures are written as SMILES. ≈ marks a conversion by molar mass, not a printed value. Starred links: 1 amine or outer side, 2 acyl side, 3 side chain; linkers in the order of their positions; H or OH if unused. Non-standard residues stand in square brackets, D forms with d. Residues, ends and D or L forms follow the SMILES beside them. Groups on a side chain read outwards from the residue. *: point of attachment. γGlu = O=C(O)[C@H](CCC(=O)[*:2])N[*:1]; Palmitoyl = CCCCCCCCCCCCCCCC(=O)*; AEEA = NCCOCCOCC(=O)O; Aib = CC(C)(N)C(=O)O Where only a bound is given, the exact number is not on record here.

The nature of this data set: Solubility in buffer.
The mark [1] stands for this setting: 80 mM ammonium bicarbonate buffer, pH 7.7, Solubility [mg/mL] 80 mM AmBicarb pH7.7, Table 2, 80 mM AmBicarb pH7.7.

For the compound `CCCCCCCCCCCCCCCC(=O)NCCCC[C@H](NC(=O)[C@H](CO)NC(=O)[C@@H]1CCCN1C(=O)[C@@H]1CCCN1C(=O)[C@@H]1CCCN1C(=O)[C@H](C)NC(=O)CNC(=O)[C@H](CO)NC(=O)[C@H](CO)NC(=O)[C@@H]1CCCN1C(=O)CNC(=O)CNC(=O)[C@H](CCCCN)NC(=O)[C@@H](NC(=O)[C@H](CC(C)C)NC(=O)[C@H](Cc1c[nH]c2ccccc12)NC(=O)C(C)(C)NC(=O)[C@@H](NC(=O)[C@H](Cc1ccccc1)NC(=O)[C@H](CCC(=O)O)NC(=O)[C@H](CCCNC(=N)N)NC(=O)[C@@H](NC(=O)[C@H](C)NC(=O)[C@H](CCC(N)=O)NC(=O)[C@H](CCC(=O)O)NC(=O)[C@H](CCC(=O)O)NC(=O)[C@H](CC(C)C)NC(=O)[C@H](Cc1ccc(O)cc1)NC(=O)[C@H](CO)NC(=O)[C@H](CO)NC(=O)[C@@H](NC(=O)[C@@H](N)CC(=O)O)C(C)C)C(C)C)[C@@H](C)CC)C(C)C)C(N)=O` [compound 83] (H-DVSSYLEEQAVREFI[Aib]WLVKGGPSSGAPPPSK(Palmitoyl)-NH2), the solubility was found to be 12.6 mg/mL (≈ 3.45 mM) (80 mM ammonium bicarbonate buffer, pH 7.7) and 0.3 mg/mL (≈ 0.0821 mM) (PBS, pH 7.7). Turning to `CCCCCCCCCCCCCCCC(=O)N[C@@H](CCC(=O)NCCOCCOCC(=O)NCCCC[C@H](NC(=O)[C@H](CO)NC(=O)[C@@H]1CCCN1C(=O)[C@@H]1CCCN1C(=O)[C@@H]1CCCN1C(=O)[C@H](C)NC(=O)CNC(=O)[C@H](CO)NC(=O)[C@H](CO)NC(=O)[C@@H]1CCCN1C(=O)CNC(=O)CNC(=O)[C@H](CCCCN)NC(=O)[C@@H](NC(=O)[C@H](CC(C)C)NC(=O)[C@H](Cc1c[nH]c2ccccc12)NC(=O)[C@H](C)NC(=O)[C@@H](NC(=O)[C@H](Cc1ccccc1)NC(=O)[C@H](CCC(=O)O)NC(=O)[C@H](CCCNC(=N)N)NC(=O)[C@@H](NC(=O)[C@H](C)NC(=O)[C@H](CCC(N)=O)NC(=O)[C@H](CCC(=O)O)NC(=O)[C@H](CCC(=O)O)NC(=O)[C@H](CC(C)C)NC(=O)[C@H](Cc1ccc(O)cc1)NC(=O)[C@H](CO)NC(=O)[C@H](CO)NC(=O)[C@@H](NC(=O)[C@@H](N)CC(=O)O)C(C)C)C(C)C)[C@@H](C)CC)C(C)C)C(N)=O)C(=O)O` [compound 56] (H-DVSSYLEEQAVREFIAWLVKGGPSSGAPPPSK([AEEA-γGlu-Palmitoyl])-NH2; N-terminus assumed), the solubility under setting [1] is > 20 mg/mL. With `CCCCCCCCCCCCCCCC(=O)N[C@@H](CCC(=O)N[C@@H](CCC(=O)NCCOCCOCC(=O)NCCOCCOCC(=O)NCCCC[C@H](NC(=O)[C@H](CO)NC(=O)[C@@H]1CCCN1C(=O)[C@@H]1CCCN1C(=O)[C@@H]1CCCN1C(=O)[C@H](C)NC(=O)CNC(=O)[C@H](CO)NC(=O)[C@H](CO)NC(=O)[C@@H]1CCCN1C(=O)CNC(=O)CNC(=O)[C@H](CCCCN)NC(=O)[C@@H](NC(=O)[C@H](CC(C)C)NC(=O)[C@H](Cc1c[nH]c2ccccc12)NC(=O)[C@H](C)NC(=O)[C@@H](NC(=O)[C@H](Cc1ccccc1)NC(=O)[C@H](CCC(=O)O)NC(=O)[C@H](CCCNC(=N)N)NC(=O)[C@@H](NC(=O)[C@H](C)NC(=O)[C@H](CCC(N)=O)NC(=O)[C@H](CCC(=O)O)NC(=O)[C@H](CCC(=O)O)NC(=O)[C@H](CC(C)C)NC(=O)[C@H](Cc1ccc(O)cc1)NC(=O)[C@H](CO)NC(=O)[C@H](CO)NC(=O)[C@@H](NC(=O)[C@@H](N)CC(=O)O)C(C)C)C(C)C)[C@@H](C)CC)C(C)C)C(N)=O)C(=O)O)C(=O)O` [compound 58] (H-DVSSYLEEQAVREFIAWLVKGGPSSGAPPPSK([AEEA-AEEA-γGlu-γGlu-Palmitoyl])-NH2; N-terminus assumed), the solubility under setting [1] is > 25 mg/mL.
